The results in this text go back to patent US20080220416A1, “Compositions for Inhibiting Cell Growth and Inducing Apoptosis in Cancer Cells and Methods of Use Thereof” (THE BOARD OF TRUSTEES OF THE UNIVERSITY OF ILLINOI, priority 2004, published 2008).

Square brackets hold non-standard residues; d marks the D form. Peptide text beside a SMILES is read from it. * marks the point of attachment. Nle = CCCC[C@H](N)C(=O)O; Cbz = O=C(OCc1ccccc1)*

Holding throughout (assay type): cell-based, human
Assay [1] concerns Notch-1. The experiment in a line: Notch-1 siRNA in CaSki cells, Notch-1 and Notch-4 Western blot. On the procedure:
The human papilloma virus (HPV)-positive human cervical cancer cell line CaSki was obtained from ATCC (Rockville, Md.) and cultured in DMEM medium with 10% FBS. Double-stranded synthetic 21-mer RNA oligonucleotides (siRNAs) were purchased from Dharmacon (Lafayette, Colo.). […] Sequence specificity was determined by BLAST searches for the uniqueness. Transfection of CaSki human cervical cancer cells with siRNAs (200 nM siRNA oligos/60 mm dish) was performed by using Oligofectamine Transfection Reagents (InVitrogen) according to manufacturer's instructions.
At 24 and 48 hours after transfection with Notch-1 siRNA or scrambled control siRNA, the CaSki cells were assayed for Notch-1 and Notch-4 expression by Western blotting. Immunoblotting was performed using antibodies to Notch-1 (C-20), and Notch-4 (H-225) from Santa Cruz Biotechnology (Santa Cruz, Calif.). Secondary anti-goat, anti-mouse, anti-rabbit and anti-rat antibodies (IgG-HR1) were purchased from Vector Laboratories (Burlingame, Calif.), Santa Cruz Biotechnology and Amersham Biosciences. For Western blot analysis, equal amounts of protein extracted from each sample (30 μg) were loaded into pre-cast 7% NuPAGE Tris-acetate gels or 4-12% NuPAGE Bis-tris gels (Invitrogen). Proteins were separated by SDS-PAGE and transferred to polyvinylidene difluoride membranes (Bio-Rad, Hercules, Calif.) using Invitrogen's buffering system. […]

In assay [2] the test system is T47D:A18 breast cancer cells. The experiment in a line: z-Leu-Leu-Nle-CHO plus Paclitaxel, growth inhibition of T47D:A18 cells. Particulars: 0-0.8 μM with Paclitaxel, 48 h. On the procedure:
Three different types of breast cancer cells were contacted with varying concentrations of z-Leu-Leu-Nle-CHO (0-0.8 μM) and the mitotic poison Paclitaxel (0.01-1 μM). MDA-MB231 cells were obtained from ATCC (Rockville, Md.). T47D:C42 and T47D:A18 cells were a kind gift of Debra Tonetti (University of Illinois-Chicago). MDA-MB231 cells were cultured in DMEM medium with 10% FBS. T47D:C42 and T47D:A18 cells were propagated in RPMI 1640 with 10% FBS, 100 μM non-essential amino acid and 6 ng/ml insulin. Gamma-secretase inhibitor z-Leu-Leu-Nle-CHO (Calbiochem 565750) was dissolved in DMSO, aliquoted and stored at −80° C. Paclitaxel (Sigma, St. Louis Mo.) was dissolved in DMSO, aliquoted and stored at −80° C.
To determine whether z-Leu-Leu-Nle-CHO treatment potentiates the effect of Paclitaxel on human breast cancer cells, MDA-MB231, T47D:C42 and T47D:A18 cells were treated for 48 h with 0-0.8 μM z-Leu-Leu-Nle-CHO and various concentrations of Paclitaxel (0.008-1 μM) Following the z-Leu-Leu-Nle-CHO and Paclitaxel treatment, the cells were tested for growth inhibition as described above in Example 13.

Assay [3] relates to Notch-1. The experiment in a line: Notch-1 cleavage in CaSki cells (Western blot N^TM, N^IC). Particulars: 0-5 μM, 24 h. On the procedure:
The CaSki human cervical cancer cells were incubated for 24 h with various concentrations (0-5 μM) of the dual inhibitor z-Leu-Leu-Nle-CHO (Calbiochem) (FIG. 13A). The cells were then collected and assayed for Notch-1 and Notch-4 expression by Western blotting. Immunoblotting was performed using antibodies to the transmembrane portion of Notch-1 (N^TM) (Santa Cruz Biotechnology (Santa Cruz, Calif.)), or the intracellular portion of Notch-1 (N^IC) (Abcam, Inc. (Cambridge, Mass.)). Secondary anti-goat, anti-rnouse, anti-rabbit and anti-rat antibodies (IgG-HRP) were purchased from Vector Laboratories (Burlingame, Calif.), Santa Cruz Biotechnology and Amersham Biosciences. For Western blot analysis, equal amounts of protein extracted from each sample (20 μg) were loaded into pre-cast 7% NuPAGE Tris-acetate gels or 4-12% NuPAGE Bis-tris gels (Invitrogen). Proteins were separated by SDS-PAGE and transferred to polyvinylidene difluoride membranes (Bio-Rad, Hercules, Calif.) using Invitrogen's buffering system. The membranes were incubated with the indicated primary antibodies, washed, and visualized by incubation with horseradish peroxidase-conjugated secondary antibodies and chemiluminescent reagents (Roche Diagnostics Corporation, Indianapolis, Ind.).
In general terms: Immunoblotting shows a protein as a band on a membrane.

Consider “5′-AAGTGTCTGAGGCCAGCAAGA-3′ [Notch-1 siRNA]”, for which, in assay [1] (200 nM siRNA, 24 and 48 hours after transfection), the Notch-1 signaling entry is reported as “effective in genetically inhibiting Notch-1 signaling”. In addition, in assay [1] (data not shown), the Notch-4 levels result was “did not effect levels of Notch-4”.

As for `CCCC[C@@H](C=O)NC(=O)[C@H](CC(C)C)NC(=O)[C@H](CC(C)C)NC(=O)OCc1ccccc1` [z-Leu-Leu-Nle-CHO, N-benzyloxycarbonyl-leucyl-leucyl-norleucinal] (Cbz-Leu-Leu-[Nle]-aldehyde), the “effect on Paclitaxel cell growth inhibition” value in assay [2] is given as “potentiated the effects of Paclitaxel on cell growth inhibition”. In assay [3], the “cleaved and transmembrane Notch-1” value is listed as “dose-dependent reduction in cleaved Notch-1”.
